Reference: PMC13198257, “An aerosolized dual-action autotaxin inhibitor-PPARγ agonist for the treatment of pulmonary fibrosis” (Cell Reports Medicine, 2026)

What was measured:
[1] = Fast-track PK of compound 5: plasma exposure after i.v., i.p., inhalation, per os; type: in vivo, mice; conditions: 30 mg/kg, 1 and 3 h post-dose, versus i.v.
[2] = system: type 2 diabetes model; assay: HFD/STZ type 2 diabetes model, oGTT; type: in vivo, C57bl/6 male mice; conditions: i.p. 50 mg/kg daily, final 2 weeks
Procedure: One-year old male mice were given a High-Fat Diet (D12492, Research Diets) for 10 weeks. During the sixth week of the HFD period, mice received three streptozotocin injections (40mg/kg). Control mice that were consuming a control diet (D12450Ji, Research Diets) received injections with the solvent of STZ, 50 mM sodium citrate buffer, pH 4.5. During the last two weeks of the HFD treatment, a subgroup of prediabetic mice was daily administered EL244 through intraperitoneal injections (50 mg/kg). Disease induction and EL244 efficacy were assessed using an Oral Glucose tolerance test (oGTT), as widely used.[64]^,[65]^,[66] 6-hr-fasted mice were administered a 10% glucose solution at 1 g/kg orally. Blood glucose levels were measured with a saccharometer before glucose administration and at 15, 30, 60, 90, and 120 min thereafter. Insulin resistance was assessed by the Area under curve (AUC) of the oGTT.

Structure (SMILES)	Plasma concentrations after i.p. and per os administration [1]	Glucose levels [2]	Insulin resistance (AUC of oGTT) [2]	PPARγ target gene expression in adipose and liver tissue [2]
O=C1NC(=O)C(Cc2ccc(OCCN3CCN(C(=O)OCc4cc(Cl)cc(Cl)c4)CC3)cc2)S1 (stereo not shown) [Compound 5, 3,5-dichlorobenzyl4-(2-(4-((2,4-dioxothiazolidin-5-yl)methyl)phenoxy)ethyl)piperazine-1-carboxylate]	comparable to the respective i.v. concentrations			
O=C1NC(=O)C(Cc2ccc(OCCC3CCN(C(=O)OCc4cc(Cl)cc(Cl)c4)CC3)cc2)S1 (stereo not shown) [EL244, 3,5-dichlorobenzyl 4-(2-(4-((2,4-dioxothiazolidin-5-yl)methyl)phenoxy)ethyl)piperidine-1-carboxylate]		lower glucose levels	decreased insulin resistance	stimulated the expression of several PPARγ target genes
